Data reported in patent US5847159A, “1-[ω-(3,4-dihydro-2-naphthalenyl)alkyl]-cyclic amine derivatives, process for preparing the same, and pharmaceutical composition containing the same” (priority 1995, dated 1998).

Legend:
[1] = tested on: rhythmic bladder contractions (micturition reflex); experiment: Inhibitory effect on rhythmic bladder contractions (micturition reflex); assay type: in vivo, Female Std-Wistar rats; conditions: i.d., rat; for ED50: 2 h, two hours, read-out: ED50, inhibitory effect on contractile frequency; for Potency on frequency of rhythmic bladder contractions relative to inaperisone hydrochloride (Compound A): compared with Compound A
Method: Inhibitory effect on rhythmic bladder contractions (micturition reflex)
The experiment was carried out according to the method of Maggi, C. […] It is generally accepted that the rhythmic bladder contractions evoked by instillation of saline solution into the bladder are mediated via the micturition reflex pathway like that of natural urination.
Female Std-Wistar rats weighing 160-190 g were used in groups of 3-4 animals. Under urethane anesthesia (1 g/kg, s.c.), both ureters were tied and cut at the side of kidney after a mid line incision of the abdomen. A cannula, connected to a syringe and a pressure transducer, was inserted into the bladder via the external urethral orifice and ligated around the proximal urethra. The animal was allowed to stay for about 30 minutes after the operation. The bladder was slowly filled with warm saline solution (0.4-1 ml) by means of a syringe until rhythmic contractions were induced. The change of the intravesical pressure was recorded on a recorder via a pressure transducer. After the rhythmic contractions became constant, test compounds dissolved or suspended in 0.5% aqueous tragacanth solution were administered via the cannula inserted for intraduodenal administration. The effect of each compound on the contractile frequency was investigated every 15 minutes till two hours after the administration.
The inhibitory rate on the contractile frequency (two hours) was expressed as the mean value of the inhibitory rates at an every 15-minute interval for two hours after the administration, which was determined based on the contractile frequency for 15 minutes before the administration.

[2] = tested on: bladder contractions induced by stimulation of the pelvic nerve, peripheral cut end; experiment: Effect on the bladder contractions induced by stimulation of the pelvic nerve (peripheral cut end); assay type: in vivo, Male Std-Wistar rats; conditions: 5 mg/kg i.v. (jugular vein), mean±SEM; for Inhibitory rate on the contraction caused by the stimulation of the peripheral cut end, 10 min. / Inhibitory rate on the contraction caused by the stimulation of the peripheral cut end, 20 min.: * p<0.05
From the text: (§1) Effect on the bladder contractions induced by stimulation of the pelvic nerve
(§2) Male Std-Wistar rats weighing 250-350 g were used. Under urethane anesthesia (1 g/kg, i.p.), both ureters were tied and cut at the side of kidney after a mid line incision of the abdomen. When the peripheral end of the pelvic nerve was stimulated, one side of the pelvic nerve was cut. When the central cut end of the nerve was stimulated, one side of the pelvic nerve was cut like in the peripheral end stimulation after both the hypogastric nerves were cut. Then, the bladder was exposed, the cannula connected to a syringe and a pressure transducer was inserted into the bladder via a small incision at an apex of the dome, and the proximal urethra was then ligated. Fifteen minutes after the operation, warm saline solution of an amount (0.1-0.2 ml) being small enough not to cause rhythmic contraction was infused into the bladder using a syringe. The change of the intravesical pressure was recorded on a recorder via a pressure transducer. The pelvic nerve was stimulated at the peripheral cut end or the central one by a pair of platinum electrodes with pulse of 1 msec duration, 3 v strength and a frequency of 10 Hz (for peripheral) or 5 v strength and a frequency of 20 Hz (for central), for 5 seconds every 2 minutes. Test compounds dissolved in distilled water were injected at a dose of 5 mg/kg via the cannula inserted into the jugular vein.
(§3) Each value in the table is mean±standard error of mean in 3-4 animals.

[3] = tested on: bladder contractions induced by stimulation of the pelvic nerve, central cut end; experiment: Effect on the bladder contractions induced by stimulation of the pelvic nerve (central cut end); assay type: in vivo, Male Std-Wistar rats; conditions: for Inhibitory rate on the contraction caused by the stimulation of the central cut end, 2 min. / Inhibitory rate on the contraction caused by the stimulation of the central cut end, 4 min. / Inhibitory rate on the contraction caused by the stimulation of the central cut end, 10 min. / Inhibitory rate on the contraction caused by the stimulation of the central cut end, 20 min.: 5 mg/kg i.v. (jugular vein), mean±SEM; for Inhibitory rate on the contraction caused by the stimulation of the central cut end, 2 min.: * p<0.05; for Inhibitory rate on the contraction caused by the stimulation of the central cut end, 4 min. / Inhibitory rate on the contraction caused by the stimulation of the central cut end, 20 min.: * p<0.05, ** <0.01; for Inhibitory rate on the contraction caused by the stimulation of the central cut end, 10 min.: ** <0.01; for Effect on contractions by stimulation of central cut end compared with peripheral cut end: 5 mg/kg i.v., rat
From the text: as §1, §2, §3

[4] = tested on: exploratory behavior; experiment: Inhibitory effect on exploratory behavior; assay type: in vivo, Male Std-Wistar rats; conditions: 500 mg/kg p.o., rat; for Inhibitory rate, exploratory behavior: one hour after administration
Method: Inhibitory effect on exploratory behavior
Male Std-Wistar rats weighing 150-200 g were used in groups of 5 animals. One hour after oral administration of test compounds suspended in 0.5% aqueous tragacanth solution, animals were individually placed in a test cage (23×35×30 cm) on an Animex activity meter (Farad Co., Sweden). Immediately thereafter, locomotor counting was started and lasted for three minutes. The mean value of the exploratory behavior (count/3 minutes) in the test compound-treated groups were determined, and then inhibitory effect of each test compound was calculated as compared with that of the control group (0.5% aqueous tragacanth solution-treated group). The results are shown in Table 5 along with the results of Experiments 4 and 5.

[5] = tested on: polysynaptic spinal reflex; experiment: Inhibitory effect on polysynaptic spinal reflex; assay type: in vivo, Male Std-Wistar rats; conditions: rat; for Inhibitory effect on spinal reflex compared with Compound A: i.v.; for ED50: iv, read-out: Inhibitory effect on polysynaptic spinal reflex, ID50
Method: Inhibitory effect on polysynaptic spinal reflex
The experiment was performed according to the method of Itoh, et al. [Japan J. Parmacol.,23, 1125 (1982)]. Male Std-Wistar rats weighing 250-350 g were used in groups of 4-6 animals. Under anesthesia with combined i.p. injection of urethane (400 mg/kg) and α-chloralose (50 mg/kg), the rat fixed in a stereotaxic apparatus was clamped at the spine and tibial bane. A concentric needle electrode was inserted into the left gastrocnemius muscle, and the central end of the ipsilateral common peroneal nerve at the same side was supramaximally stimulated by an electrical stimulator (rectangular pulse,0.1 msec,0.1 Hz). Test compounds dissolved in distilled water were injected via a cannula inserted into the right femoral vein, and the evoked electromyogram was periodically recorded (2, 5, 10, 20 and 30 minutes after the injection). […] The results are shown in Table 5 along with the results of Experiments 3 and 5.

[6] = in vivo; conditions: in vivo, po; mouse; 7 days; read-out: Acute toxicity LD50
From the text: (§4) Male ddY mice weighing 18-25 g were used in groups of 5-15 animals. Test compounds suspended in 0.5% aqueous tragacanth solution were given orally, and the mortality was investigated for 7 days following administration.

[7] = tested on: Male ddY mice; experiment: in vivo; conditions: p.o.; mouse
From the text: as §4

[8] = tested on: rhythmic bladder contractions (micturition reflex); experiment: Inhibitory effect on rhythmic bladder contractions (micturition reflex); assay type: in vivo, Female Std-Wistar rats; conditions: judged from Experiments 1, 3, 4 and 5
[9] = tested on: neurogenic bladder, unstable bladder, and nervous pollakisuria; conditions: Nishinihon J. Urol., 54, 1472 and 1820 (1992); cited from earlier work
[10] = tested on: dopamine receptor; conditions: in vitro; cited from earlier work

Row | SMILES | ED50 [1] [mg/kg] | Potency on frequency of rhythmic bladder contractions relative to inaperisone hydrochloride (Compound A) [1] | Inhibitory rate on the contraction caused by the stimulation of the peripheral cut end, 2 min. [2] [%] | Inhibitory rate on the contraction caused by the stimulation of the peripheral cut end, 4 min. [2] [%] | Inhibitory rate on the contraction caused by the stimulation of the peripheral cut end, 10 min. [2] [%] | Inhibitory rate on the contraction caused by the stimulation of the peripheral cut end, 20 min. [2] [%] | Inhibitory rate on the contraction caused by the stimulation of the central cut end, 2 min. [3] [%] | Inhibitory rate on the contraction caused by the stimulation of the central cut end, 4 min. [3] [%] | Inhibitory rate on the contraction caused by the stimulation of the central cut end, 10 min. [3] [%] | Inhibitory rate on the contraction caused by the stimulation of the central cut end, 20 min. [3] [%] | Effect on contractions by stimulation of central cut end compared with peripheral cut end [3] | Inhibitory rate, exploratory behavior [4] [%] | Inhibitory effect on exploratory behavior compared with Compound A [4] | Inhibitory effect on spinal reflex compared with Compound A [5] | ED50 [5] [mg/kg] | LD50 at 168 h [6] [mg/kg] | Acute toxicity compared with Compound A [7] | Separation of effect on micturition reflex from side effects (central depression, inhibition of spinal reflex) and toxicity, in comparison with Compound A [8] | further results
1 | Cc1cc2c(cc1C)CCC(CCN1CCCC1)=C2 [Ex. 2, 1-[2-(3,4-dihydro-6,7-dimethyl-2-naphthalenyl)ethyl]-pyrrolidine] | 4.4 | about 8 times more potent | 0.4 ± 5.2 | 16.3 ± 7.0 | 13.7 ± 4.5 | 19.0 ± 7.5 | 13.3 ± 5.1 | 17.7 ± 2.8 | 25.6 ± 3.7 | 24.9 ± 4.1 | more potent than those on the contractions induced by the stimulation of peripheral cut end | 0 | less potent than that of Compound A | much weaker than that of Compound A | > 8 | 620 | also lower than that of Compound A | extremely separated from side effects | Effect on the amplitude of contraction [1]: suppressed the amplitude of contraction
2 | CCc1ccc(C(=O)C(C)CN2CCCC2)cc1.Cl (centres unmarked) [Compound A, 1-(4-ethylphenyl)-2-methyl-3-(1-pyrrolidinyl)-1-propanone hydrochloride, reference compound] | 34.8 | – | 6.2 ± 5.1 | 14.7 ± 4.0 | 25.1 ± 4.2 | 31.6 ± 2.5 | 21.0 ± 10.7 | 22.5 ± 7.3 | 29.3 ± 7.7 | 40.6 ± 8.8 | – | 28.3 | – | – | 4.22 | – | – | – | Efficacy for neurogenic bladder, unstable bladder, nervous pollakisuria [9]: effective for the symptoms such as neurogenic bladder, unstable bladder, and nervous pollakisuria
3 | Cc1cc2c(cc1C)CCC(CCN1CCCCC1)=C2 [Ex. 43, 1-[2-(3,4-dihydro-6,7-dimethyl-2-naphthalenyl)ethyl]piperidine] | 11.1 | ~3 times more potent | 2.4 ± 3.3 | 5.8 ± 6.3 | 6.3 ± 8.1 | 17.2 ± 12.2 | 6.0 ± 10.8 | 22.8 ± 9.7 | 28.3 ± 4.0 | 37.3 ± 5.0 | more potent than those on the contractions induced by the stimulation of peripheral cut end | 20.0 | almost equal to that of Compound A | nearly equal to that of Compound A | 3.82 | 1040 | about twice lower than that of Compound A | extremely separated from side effects | –
4 | Fc1cccc2c1CCC(CCN1CCCC1)=C2 [Ex. 1, 1-[2-(5-fluoro-3,4-dihydro-2-naphthalenyl)ethyl]-pyrrolidine] | 4.3 | about 8 times more potent | 4.4 ± 4.4 | 3.4 ± 4.4 | 3.2 ± 7.5 | 9.6 ± 8.6 | 26.3 ± 10.0 | 27.6 ± 5.6 | 36.8 ± 10.1 | 44.1 ± 5.8 | more potent than those on the contractions induced by the stimulation of peripheral cut end | 16.2 | less potent than that of Compound A | much weaker than that of Compound A | > 10 | 556 | also lower than that of Compound A | extremely separated from side effects | –
5 | C1=C(CCN2CCCCC2)CCc2ccccc21.Cl [1-[2-(3,4-dihydro-2-naphthalenyl)ethyl]piperidine hydrochloride] | – | – | – | – | – | – | – | – | – | – | – | – | – | – | – | – | – | – | Affinity for dopamine receptor [10]: quite low affinity
